Test results taken from the Biogen ADME set (Fang et al. 2023).
Values after ≈ are worked out from the molar mass of the structure shown.

Conditions: for aqueous solubility: pH 6.8

Row | SMILES | MDR1-MDCK efflux ratio | intrinsic clearance, human liver microsomes | intrinsic clearance, rat liver microsomes | aqueous solubility | fraction unbound, human plasma | fraction unbound, rat plasma
1 | CN1CCC(O)(CNS(=O)(=O)CC2CCCCC2)CC1 | 2.92 | ≤ 4.74 mL/min/kg | 387 mL/min/kg |  |  | 
2 | CCOc1ccc(OCCN2CCN(C(C)=O)CC2)cc1 | 0.671 | ≤ 4.74 mL/min/kg | 17.5 mL/min/kg |  |  | 
3 | CN(Cc1ccccc1Br)C(=O)Nc1ccc(C(=O)N2CCCC2)cc1 | 9.97 | 14.6 mL/min/kg | 767 mL/min/kg | 69.4 µg/mL (≈ 167 µM) |  | 
4 | Cc1ncsc1C(=O)N1C[C@@H]2CCCN(C(=O)c3scnc3C)[C@@H]2C1 | 82 | ≤ 4.74 mL/min/kg | 11 mL/min/kg | 75.9 µg/mL (≈ 202 µM) |  | 
5 | CC(=O)NC1(c2ccc(F)cc2)CCN(Cc2ccc(OC3CCCC3)cc2)CC1 |  | 24.8 mL/min/kg | 346 mL/min/kg | 72.4 µg/mL (≈ 176 µM) |  | 
6 | CN(C)Cc1ccc(-c2ccccc2C(=O)O)cc1 |  | ≤ 4.74 mL/min/kg | ≤ 10.7 mL/min/kg | 30.5 µg/mL (≈ 119 µM) |  | 
7 | CC(C)N(CCCNC(=O)Nc1ccc(C(C)(C)C)cc1)C[C@@H]1O[C@@H](n2cc(Br)c3c(N)ncnc32)[C@H](O)[C@H]1O | 17 | 354 mL/min/kg | 2010 mL/min/kg |  |  | 
8 | COc1ncc(C(=O)NCc2cnn3cccnc23)cn1 | 2.54 | ≤ 4.74 mL/min/kg | ≤ 10.7 mL/min/kg |  |  | 
9 | CCC(Oc1ccccc1)C(=O)Nc1nc2ccccc2[nH]1 (stereo not drawn) |  |  |  | 11.8 µg/mL (≈ 40.1 µM) |  | 
10 | CC1(C)CN(C(=O)c2cscn2)CCS1(=O)=O |  |  |  | 39.9 µg/mL (≈ 145 µM) |  | 
11 | C[C@@H](NC(=O)N1CCC2(CCN(C)CC2)C1)c1ccc(F)cc1 | 1.75 | ≤ 4.74 mL/min/kg | ≤ 10.7 mL/min/kg |  |  | 
12 | CC(C)(C)n1ncc(OCc2ccc(OCCOCCO)nc2)c(Cl)c1=O | 4.55 | 8.19 mL/min/kg | 88.1 mL/min/kg | 32.5 µg/mL (≈ 81.7 µM) |  | 
13 | CC(=O)N[C@H]1CCN(C(=O)N[C@H](C)C(c2ccccc2)c2ccccc2)C1 | 113 | 63.6 mL/min/kg | 825 mL/min/kg |  |  | 
14 | COCC(=O)N(CC1CCCO1)c1nc2c(s1)CCc1c-2cnn1C (stereo not drawn) |  | 6.3 mL/min/kg | 14.2 mL/min/kg |  |  | 
15 | Fc1cccc(Cl)c1CNCCc1c[nH]c2ccccc12 | 0.457 | 298 mL/min/kg | 2150 mL/min/kg | 48.3 µg/mL (≈ 159 µM) |  | 
16 | CCc1cnc(CCNc2cncc(Cl)n2)s1 |  | 183 mL/min/kg | 855 mL/min/kg | 48 µg/mL (≈ 179 µM) |  | 
17 | Cc1ccc2[nH]c(C3CCN(C)CC3)nc2c1 | 2.88 | 88.3 mL/min/kg | 685 mL/min/kg | 57.3 µg/mL (≈ 250 µM) |  | 
18 | COc1ccncc1NCc1cscn1 |  | ≤ 4.74 mL/min/kg | 25.4 mL/min/kg |  |  | 
19 | Cc1ccc(CNC/C=C/c2ccccc2)cn1 | 0.387 | 28.5 mL/min/kg | 410 mL/min/kg | 29.1 µg/mL (≈ 122 µM) |  | 
20 | CN(Cc1cccc(C#N)c1)Cc1ccccc1C#N | 0.591 | 283 mL/min/kg | 4220 mL/min/kg | 29.4 µg/mL (≈ 112 µM) |  | 
21 | COCCS(=O)(=O)N1CCC2(Cc3ccccc3C2)C1 | 0.583 | 19.2 mL/min/kg | 893 mL/min/kg | 54 µg/mL (≈ 183 µM) |  | 
22 | c1ccc(C2(c3ccccc3)CCCN(Cc3nnc(C4CC4)o3)C2)cc1 | 0.685 | 246 mL/min/kg | 1200 mL/min/kg | 35.6 µg/mL (≈ 98.9 µM) |  | 
23 | c1ccc(Nc2nc(N3CCOCC3)nc(N3CCOCC3)n2)cc1 | 0.502 | 22.8 mL/min/kg | 48.3 mL/min/kg |  |  | 
24 | CC(C)(C)C(=O)N1CCC(CN2CCCC[C@@H]2CO)CC1 | 14.3 | ≤ 4.74 mL/min/kg | 29.4 mL/min/kg | 50.1 µg/mL (≈ 169 µM) |  | 
25 | CONC(=O)c1c(C)nn(C)c1Cl | 0.868 | ≤ 4.74 mL/min/kg | ≤ 10.7 mL/min/kg |  |  | 
26 | O=c1[nH]c2ccccc2n1C1CCN(Cc2nc(-c3cccs3)no2)CC1 |  | 11.4 mL/min/kg | 234 mL/min/kg |  |  | 
27 | CCCN(CCc1cccs1)[C@H]1CCc2c(O)cccc2C1 | 0.512 | 98.1 mL/min/kg | 3810 mL/min/kg |  |  | 

The next lines start with the values.

Row | MDR1-MDCK efflux ratio | intrinsic clearance, human liver microsomes | intrinsic clearance, rat liver microsomes | aqueous solubility | fraction unbound, human plasma | fraction unbound, rat plasma | SMILES
28 | 1.92 | 98.6 mL/min/kg | 950 mL/min/kg |  |  |  | CC(C)(C)c1cnc(CN2CCC(=O)Nc3cc(F)ccc32)o1
29 | 1.59 | ≤ 4.74 mL/min/kg | ≤ 10.7 mL/min/kg | 31.5 µg/mL (≈ 127 µM) |  |  | CCCn1nccc1NC(=O)c1c(C)noc1C
30 | 1.48 | 44.4 mL/min/kg | 83.1 mL/min/kg | 12.9 µg/mL (≈ 30.8 µM) |  |  | COc1cc(/C=C2\CCCN([C@@H](C)c3ccc(F)cc3)C2=O)ccc1-n1cnc(C)c1
31 |  | ≤ 4.74 mL/min/kg | 62.6 mL/min/kg | 26.5 µg/mL (≈ 82.6 µM) |  |  | C[C@H](C(=O)Nc1nc2ccccc2[nH]1)N1Cc2ccccc2C1=O
32 | 1.52 | 40.9 mL/min/kg | 66.8 mL/min/kg | 20.1 µg/mL (≈ 74.2 µM) |  |  | Clc1ccc(Cc2nc(-c3ccccc3)n[nH]2)cn1
33 | 0.946 | 55.1 mL/min/kg | 579 mL/min/kg | 19.9 µg/mL (≈ 72.1 µM) |  |  | Cc1ccc(-n2ccnc2-c2ccoc2)c2cccnc12
34 |  | ≤ 4.74 mL/min/kg |  |  | 0.492 | 0.696 | CC(C)(C)OC(=O)N1CCCC1C(=O)N1CCC(C(=O)N[C@@H](Cc2c[nH]c3ccccc23)C(=O)O)CC1 (stereo partly drawn)
35 | 0.671 | 67.1 mL/min/kg | 105 mL/min/kg | 24 µg/mL (≈ 107 µM) |  |  | COc1cncc(-c2ccnc3[nH]ccc23)c1
36 | 3.55 | 38 mL/min/kg | 500 mL/min/kg |  |  |  | COc1cccc(C)c1C(=O)N(C)CCCn1cccn1
37 | 12.5 | 5.81 mL/min/kg | 186 mL/min/kg | 68.6 µg/mL (≈ 165 µM) |  |  | Nc1nc(-c2ccccc2)nc2nc(C3CCCN(CC(=O)N4CCCC4)C3)ccc12 (stereo not drawn)
38 | 1.02 | 113 mL/min/kg | 2820 mL/min/kg |  |  |  | COc1cccc(Cc2nc3sc4c(c3c(=O)[nH]2)CCSC4)c1
39 | 0.69 | 23.3 mL/min/kg | 415 mL/min/kg | 26 µg/mL (≈ 99 µM) |  |  | Cn1c(=O)n(C2CCCC2)c(=O)c2c(F)cccc21
40 |  | 8.58 mL/min/kg | 77.1 mL/min/kg |  |  |  | CN1C(=O)N[C@H](Cc2c[nH]c3c(Cl)cccc23)C1=O
41 | 6.14 | ≤ 4.74 mL/min/kg | 106 mL/min/kg | 3.03 µg/mL (≈ 7.88 µM) |  |  | O=C(NCc1ccc(F)cc1)C1CCN(C(=O)/C=C/c2ccc(F)cc2)CC1
42 | 6.54 | 5.21 mL/min/kg | 51.4 mL/min/kg | 29.9 µg/mL (≈ 120 µM) |  |  | Cc1nnc(NCc2cccnc2)c2ccccc12
43 |  |  |  | 1.75 µg/mL (≈ 6.07 µM) |  |  | Cc1ccc(C)c(CN2C(=O)C(=O)N(CC(C)C)C2=O)c1

Row | MDR1-MDCK efflux ratio | intrinsic clearance, human liver microsomes | intrinsic clearance, rat liver microsomes | aqueous solubility | fraction unbound, human plasma | fraction unbound, rat plasma | SMILES
44 | 0.443 | ≤ 4.74 mL/min/kg | 527 mL/min/kg | 30.1 µg/mL (≈ 132 µM) |  |  | Cc1cccc(Oc2cc(CN)ccn2)c1C
45 | 0.589 | 95.6 mL/min/kg | 537 mL/min/kg | 1.75 µg/mL (≈ 5.96 µM) |  |  | Cc1ccccc1CSc1ccc(-c2ccccn2)nn1
46 |  |  |  | 30.6 µg/mL (≈ 153 µM) |  |  | N#CCc1ccc(NC(=O)C2CC2)cc1
47 | 0.69 | 200 mL/min/kg | 1640 mL/min/kg | 37.8 µg/mL (≈ 108 µM) |  |  | O=C(NCC1=CCCN(Cc2cc(F)ccc2Cl)C1)c1ccco1
48 | 6.55 | ≤ 4.74 mL/min/kg | 19.2 mL/min/kg | 48 µg/mL (≈ 158 µM) |  |  | CC(C)C(=O)N1CCC(Nc2ncnc3ccsc23)CC1
49 | 49.3 | 10 mL/min/kg | 114 mL/min/kg |  |  |  | CC(=O)Nc1ccccc1CN1CCC(c2nnc3ccccn23)CC1
50 | 92.4 | ≤ 4.74 mL/min/kg | 44.5 mL/min/kg | 39.4 µg/mL (≈ 120 µM) |  |  | CCCN(C)C(=O)Nc1cccc(-c2nnc3n2CCCCC3)c1
51 |  |  |  | 8.26 µg/mL (≈ 24.5 µM) |  |  | Cc1cccc2c(=O)n(CCC(=O)Nc3cc(C4CC4)n[nH]3)cnc12
52 | 3.2 | 5.08 mL/min/kg | 19.9 mL/min/kg |  |  |  | CNc1ncnc2c1ncn2[C@H]1CC[C@H](NC(=O)CCCNC(=O)OC(C)(C)C)[C@H](O)[C@H]1O
53 | 0.905 | 397 mL/min/kg | 1270 mL/min/kg | 36 µg/mL (≈ 95.1 µM) |  |  | O=C(c1cccnc1)N1CCCC(c2cccc(-c3cccc(Cl)c3)n2)C1 (stereo not drawn)
54 |  | 150 mL/min/kg | 184 mL/min/kg | 23.9 µg/mL (≈ 98.2 µM) |  |  | COc1ncccc1NC(=O)c1cccc(C)n1
55 | 0.557 | 90 mL/min/kg | 280 mL/min/kg | 30.4 µg/mL (≈ 123 µM) |  |  | Cc1ccccc1C(=O)Nc1nc(C)c(C)s1
56 | 0.641 | 341 mL/min/kg | 2000 mL/min/kg | 14.1 µg/mL (≈ 44 µM) |  |  | CN1CCN(Cc2noc(Cc3ccccc3)n2)c2ccccc21
57 |  |  |  | 0.65 µg/mL (≈ 2.34 µM) |  |  | N#Cc1ccccc1OCn1nnc2ccccc2c1=O
58 |  | 77.5 mL/min/kg | 425 mL/min/kg | 21.4 µg/mL (≈ 52.7 µM) |  |  | O=C(COc1ccc2ccc(=O)oc2c1)Nc1cccc(COCc2ccco2)c1
59 | 0.865 | 131 mL/min/kg | 290 mL/min/kg |  |  |  | CCCc1cc(C(=O)Nc2ccc(-c3nnc(C)[nH]3)cc2)no1
